Data as given in publication PMC9557946, “Intermittent MEK inhibition for the treatment of metastatic uveal melanoma” (Frontiers in Oncology, 2022).
Where “and” joins values, the source holds several entries; their conditions need not be identical. Equal values may be shown once. Read-outs that look alike come from different tables or passages of the source.

Legend:
uveal melanoma = system: uveal melanoma; parameters: method as in PMID 22550165; details: ref [7], cited from earlier work
[1] = in vivo
Description: Non-compartmental analyses were performed on the data for day 1, 2, 15 and 17 using Winnonlin software (Phoenix Winnonlin 8.3.1.5014, Certara L.P., Princeton, NJ). […] Data were summarized per dose level and per occasion. Dose-exposure relationships were explored by plotting dose versus the various parameters. Accumulation was investigated using the AUC assessed at various days.

[2] = cited from earlier work
[3] = Phase Ib trial of intermittent selumetinib: adverse events, DLT and MTD; format: in vivo
Excerpt: This was a multi-center, open-label, phase Ib study conducted at Columbia University Irving Medical Center (New York, NY), University of Texas MD Anderson Cancer Center (Houston, TX), and Memorial Sloan Kettering Cancer Center (New York, NY). […] Exploratory objectives included pharmacodynamic (PD) assessment of target inhibition of the MEK pathway.
The MTD was estimated using the time to event continual reassessment method (TITE-CRM) with a target DLT rate of 0.25 ([17]). TITE-CRM was used as it allows use of partial information before a complete follow-up is achieved and allows for a longer toxicity evaluation window beyond the first cycle to account for late onset toxicities. As a result, trials can be conducted in a continuous fashion. […] Based on prior clinical data, the estimated MTD prior to conduct of the trial was DL2.
Descriptive statistics were used to report baseline characteristics of the study population. The observed rate and estimated rate of DLT were reported for each dose level along with the 90% probability interval. The number and percentage of patients with adverse events were summarized taking the highest grade and reported by grade for AEs that were at least possibly related to treatment. AEs with at prevalence of least 10% were reported separately. The overall response rate (ORR) was defined as a confirmed complete response (CR) or partial response (PR) according to RECIST 1.1 criteria ([18]) and reported by dose level. […] PFS was measured from date of enrollment until the date of progression or death, whichever occurred first. OS was defined as the time from the date of registration to the date of death by any cause.
Toxicity was graded using National Cancer Institute Common Terminology Criteria for Adverse Events (CTCAE v. 4.0). For recurrent adverse events (AEs), the highest reported grade per event per patient was assessed. The DLT observation period was 8 weeks from the initiation of treatment.

pERK = test: Pharmacodynamic analysis of serial tumor biopsies (immunoblot, densitometry); format: in vivo, human
Description: Serial tumor biopsies were collected from patients at baseline, on day 3, and between days 11 and 14. Flash-frozen specimens were lysed in RIPA lysis buffer. Equal amounts of protein were loaded on 4-20% PAGE gels (Invitrogen) and analyzed by immunoblotting using antibodies for pERK, ERK, cyclin D1 and α-tubulin (Cell Signaling). Signals from secondary antibodies were detected using ECL (Pierce) and autoradiography films. Densitometry analysis of each band was performed using Photoshop C6 and normalized to tubulin expression.

[4] = system: metastatic uveal melanoma; details: ref [10], cited from earlier work
[5] = related to study treatment, 29 patients, all dose levels

SMILES: Cn1cnc2c(F)c(Nc3ccc(Br)cc3Cl)c(C(=O)NOCCO)cc21 [selumetinib]
- median PFS (uveal melanoma; selumetinib 75 mg BID vs temozolomide or DTIC): 16 weeks
- patients achieving an objective radiographic response (uveal melanoma; selumetinib 75 mg BID): 14%
- AUC0-4h ([1]; human, 100 mg): 2903 ± 461 (6) h*ng/mL
- AUC0-8h ([1]; human, 100 mg): 4265 ± 628 (2) h*ng/mL
- CL/F ([1]; human, 100 mg): 20.9 ± 3.7 (2) L/h
- Cmax ([1]; human, 100 mg): 1453 ± 530 (6) ng/mL
- Tmax ([1]; human, 100 mg): 1.7 ± 0.5 (6) h
- t½ ([1]; human, 100 mg): 2.4 ± 0.3 (2) h
- AUC0-4h ([1]; human, 125 mg): 4270 ± 1470 (56) h*ng/mL
- AUC0-8h ([1]; human, 125 mg): 6042 ± 2210 (29) h*ng/mL
- CL/F ([1]; human, 125 mg): 18.7 ± 8.1 (26) L/h
- Cmax ([1]; human, 125 mg): 2115 ± 798 (56) ng/mL
- intra-patient coefficient of variation for AUC0-8h ([1]; human, 125 mg): 11.3%
- intra-patient coefficient of variation for Cmax ([1]; human, 125 mg): 25.3%
- t½ ([1]; human, 125 mg): 4.3 ± 5.7 (26) h
- AUC0-4h ([1]; human, 150 mg): 6073 ± 1540 (8) h*ng/mL
- AUC0-8h ([1]; human, 150 mg): 6683 ± 729 (4) h*ng/mL
- CL/F ([1]; human, 150 mg): 14.8 ± 7.6 (8) L/h
- Cmax ([1]; human, 150 mg): 3041 ± 1155 (8) ng/mL
- t½ ([1]; human, 150 mg): 7.9 ± 9.1 (3) h
- accumulation [1]: little to no accumulation
- continuous dose MTD ([2]; continuous dosing schedule): 75 mg BID
- mean half-life ([2]; prior knowledge, no reference given): 5 to 8 h
- increase of intermittent MTD over continuous dose MTD ([3]; 150 mg BID vs 75 mg BID): 100%
- patients requiring dose reduction for treatment-related toxicity ([3]; 29 patients, all dose levels): 21%
- patients who discontinued therapy due to toxicity ([3]; 29 patients, all dose levels): Five patients discontinued therapy due to toxicity
- patients with at least one treatment-related AE of any grade ([3]; 29 patients, all dose levels): All patients
- patients with grade 3 or higher treatment-related AE ([3]; 29 patients, all dose levels): 17%
- Observed DLTs ([3]; All dose levels, 29 patients): 5
- estimated probability of toxicity at the MTD ([3]; DL3 150 mg BID, 90% probability interval 16%-44%): 29%
- DLT Information ([3]; Dose Level 2 (125 mg BID)): • Grade 3 Hypertension • Grade 3 Abdominal pain
- Observed DLTs ([3]; Dose Level 2 (125 mg BID), 20 patients): 2/20 and 2
- DLT Information ([3]; Dose Level 3 (150 mg BID)): • Grade 3 Abdominal pain • Grade 3 AST elevation
- Observed DLTs ([3]; Dose Level 3 (150 mg BID), 5 patients): 2/5 and 2
- DLT Information ([3]; Dose Level 4 (175 mg BID)): • Grade 3 AST elevation
- Observed DLTs ([3]; Dose Level 4 (175 mg BID), 1 patient): 1/1 and 1
- most common grade 3 AE ([3]; all dose levels): abdominal pain
- treatment discontinuation associated with liver enzyme elevation ([3]; all dose levels): 2 n
- treatment discontinuation associated with retinopathy ([3]; all dose levels): 2 n
- patients who died within 30 days of treatment discontinuation ([3]; all from progression of disease): 4 patients
- Abdominal pain, All Grades [3, 5]: 12 (41%) patients (%)
- Abdominal pain, Grade 1 [3, 5]: 5 (17) n(%)
- Abdominal pain, Grade 2 [3, 5]: 4 (14) n(%)
- Abdominal pain, Grade 3 [3, 5]: 3 (10) n(%)
- Abdominal pain, Grade 4 [3, 5]: 0 n(%)
- Anemia, All Grades [3, 5]: 13 (45%) patients (%)
- Anemia, Grade 1 [3, 5]: 11 (38) n(%)
- Anemia, Grade 2 [3, 5]: 1 (3) n(%)
- Anemia, Grade 3 [3, 5]: 0 n(%)
- Anemia, Grade 4 [3, 5]: 1 (3) n(%)
- Constipation, All Grades [3, 5]: 10 (34%) patients (%)
- Constipation, Grade 1 [3, 5]: 8 (28) n(%)
- Constipation, Grade 2 [3, 5]: 2 (7) n(%)
- Constipation, Grade 3 [3, 5]: 0 n(%)
- Constipation, Grade 4 [3, 5]: 0 n(%)
- Decreased WBC, All Grades [3, 5]: 8 (28%) patients (%)
- Decreased WBC, Grade 1 [3, 5]: 5 (17) n(%)
- Decreased WBC, Grade 2 [3, 5]: 2 (7) n(%)
- Decreased WBC, Grade 3 [3, 5]: 1 (3) n(%)
- Decreased WBC, Grade 4 [3, 5]: 0 n(%)
- Diarrhea, All Grades [3, 5]: 16 (55%) patients (%)
- Diarrhea, Grade 1 [3, 5]: 14 (48) n(%)
- Diarrhea, Grade 2 [3, 5]: 2 (7) n(%)
- Diarrhea, Grade 3 [3, 5]: 0 n(%)
- Diarrhea, Grade 4 [3, 5]: 0 n(%)
- Fatigue, All Grades [3, 5]: 25 (86%) patients (%)
- Fatigue, Grade 1 [3, 5]: 19 (66) n(%)
- Fatigue, Grade 2 [3, 5]: 6 (21) n(%)
- Fatigue, Grade 3 [3, 5]: 0 n(%)
- Fatigue, Grade 4 [3, 5]: 0 n(%)
- Hypertension, All Grades [3, 5]: 14 (48%) patients (%)
- Hypertension, Grade 1 [3, 5]: 3 (10) n(%)
- Hypertension, Grade 2 [3, 5]: 9 (31) n(%)
- Hypertension, Grade 3 [3, 5]: 2 (7) n(%)
- Hypertension, Grade 4 [3, 5]: 0 n(%)
- Increased AST/ALT, All Grades [3, 5]: 12 (41%) patients (%)
- Increased AST/ALT, Grade 1 [3, 5]: 10 (34) n(%)
- Increased AST/ALT, Grade 2 [3, 5]: 0 n(%)
- Increased AST/ALT, Grade 3 [3, 5]: 2 (7) n(%)
- Increased AST/ALT, Grade 4 [3, 5]: 0 n(%)
- Nausea, All Grades [3, 5]: 17 (59%) patients (%)
- Nausea, Grade 1 [3, 5]: 12 (41) n(%)
- Nausea, Grade 2 [3, 5]: 5 (17) n(%)
- Nausea, Grade 3 [3, 5]: 0 n(%)
- Nausea, Grade 4 [3, 5]: 0 n(%)
- Pruritus, Grade 1 [3, 5]: 10 (34) n(%)
- Pruritus, Grade 2 [3, 5]: 0 n(%)
- Pruritus, Grade 3 [3, 5]: 0 n(%)
- Pruritus, Grade 4 [3, 5]: 0 n(%)
- Rash acneiform, All Grades [3, 5]: 19 (65%) patients (%)
- Rash acneiform, Grade 1 [3, 5]: 14 (48) n(%)
- Rash acneiform, Grade 2 [3, 5]: 5 (17) n(%)
- Rash acneiform, Grade 3 [3, 5]: 0 n(%)
- Rash acneiform, Grade 4 [3, 5]: 0 n(%)
- Retinopathy/Blurred Vision, All Grades [3, 5]: 8 (28%) patients (%)
- Retinopathy/Blurred Vision, Grade 1 [3, 5]: 8 (28) n(%)
- Retinopathy/Blurred Vision, Grade 2 [3, 5]: 0 n(%)
- Retinopathy/Blurred Vision, Grade 3 [3, 5]: 0 n(%)
- Retinopathy/Blurred Vision, Grade 4 [3, 5]: 0 n(%)
- Vomiting, All Grades [3, 5]: 8 (28%) patients (%)
- Vomiting, Grade 1 [3, 5]: 5 (17) n(%)
- Vomiting, Grade 2 [3, 5]: 3 (10) n(%)
- Vomiting, Grade 3 [3, 5]: 0 n(%)
- Vomiting, Grade 4 [3, 5]: 0 n(%)
- mean reduction in pERK expression (pERK; day 3 of first cycle (on treatment) vs baseline, n=9): 41.3%
- mean increase in pERK expression from day 3 (pERK; day 11-14, off-treatment window): 69.3%
- cases with at least partial pERK recovery (pERK; day 11-14 off treatment, of 9 patients): 7 cases
- median PFS ([4]; SELPAC, selumetinib 75 mg BID): 3.4 months
- ORR ([4]; SelPac, 77 patients): 4%
- median OS ([4]; SelPac, 77 patients): 10 months
